≈ marks a conversion by molar mass, not a printed value.
Experiments:
Type in all cases: cell-based
[1] = system: E. coli ATCC25922; experiment: MIC determination, broth microdilution (CLSI); settings: for MIC: Escherichia coli, ATCC25922, strain 1
[2] = system: K. pneumoniae 60; experiment: MIC determination, broth microdilution (CLSI); settings: for MIC: Klebsiella pneumoniae, 60, strain 2
[3] = system: E. cloacae 34654; experiment: MIC determination, broth microdilution (CLSI); settings: for MIC: Enterobacter cloacae, 34654, strain 3
[4] = system: C. freundii K21/3034; experiment: MIC determination, broth microdilution (CLSI); settings: for MIC: Citrobacter freundii, K21/3034, strain 4
[5] = system: M. morganii 126/3048; experiment: MIC determination, broth microdilution (CLSI); settings: for MIC: Morganella morganii, 126/3048, strain 5
[6] = system: P. aeruginosa PAO1; experiment: MIC determination, broth microdilution (CLSI); settings: for MIC: Pseudomonas aeruginosa, PAO1, strain 6
[7] = system: P. aeruginosa 2297 (AmpC wt); experiment: MIC determination, broth microdilution (CLSI); settings: for MIC: Pseudomonas aeruginosa, strain 7
[8] = system: P. aeruginosa 2297-con (AmpC derepressed); experiment: MIC determination, broth microdilution (CLSI); settings: for MIC: Pseudomonas aeruginosa, read-out: strain 8 MIC, strain 8
[9] = system: A. baumannii ATCC15308; experiment: MIC determination, broth microdilution (CLSI); settings: for MIC: Acinetobacter baumannii, ATCC15308, strain 9
[10] = system: S. maltophilia ICB7569; experiment: MIC determination, broth microdilution (CLSI); settings: for MIC: Stenotrophomonas maltophilia, ICB7569, strain 10
[11] = system: S. aureus 133; experiment: MIC determination, broth microdilution (CLSI); settings: for MIC: Staphylococcus aureus, 133, strain 11, read-out: strain 11 MIC
[12] = system: M. catarrhalis ICB489; experiment: MIC determination, broth microdilution (CLSI); settings: for MIC: Moraxella catarrhalis, ICB489, strain 12
[13] = system: H. influenzae ATCC 49247; experiment: MIC determination, broth microdilution (CLSI); settings: for MIC: Haemophilus influenzae, ATCC49247, strain 13, read-out: strain 13 MIC
[14] = system: B. fragilis 6688; experiment: MIC determination, broth microdilution (CLSI); settings: for MIC: Bacteroides fragilis, 6688, strain 15, read-out: strain 15 MIC
[15] = system: C. perfringens DSM756; experiment: microbe, parasite or virus in culture; settings: for MIC: Clostridium perfringens, DSM756, read-out: strain 16 MIC, strain 16
[16] = system: E. coli J62; experiment: MIC determination, broth microdilution (CLSI); settings: for MIC: Escherichia coli, J62, strain 17, read-out: strain 17 MIC
[17] = system: E. coli J62-TEM-3; experiment: MIC determination, broth microdilution (CLSI); settings: for MIC: Escherichia coli, J62TEM3, read-out: strain 18 MIC, strain 18
[18] = system: strain 19; experiment: MIC determination, broth microdilution (CLSI)
[19] = system: strain 20; experiment: MIC determination, broth microdilution (CLSI)
[20] = system: strain 21; experiment: MIC determination, broth microdilution (CLSI)
[21] = system: S. pneumoniae 113; experiment: MIC determination, broth microdilution (CLSI); settings: Streptococcus pneumoniae, 113, strain 14; read-out: strain 14 MIC

Structure (SMILES)	MIC [10] [mg/L]	MIC [11] [mg/L]	MIC [13] [mg/L]	MIC [17] [mg/L]	MIC [1] [mg/L]	MIC [2] [mg/L]	MIC [3] [mg/L]	MIC [4] [mg/L]	MIC [5] [mg/L]	MIC [6] [mg/L]	MIC [7] [mg/L]	MIC [8] [mg/L]	MIC [9] [mg/L]	MIC [12] [mg/L]	MIC [21] [mg/L]	MIC [14] [mg/L]	MIC [16] [mg/L]	MIC [18] [mg/L]	MIC [19] [mg/L]	MIC [20] [mg/L]	further results
CC1(C)[C@H](NC(=O)/C(=N\OC(COc2ccc(C(=N)N)cc2)C(=O)O)c2csc(N)n2)C(=O)N1OS(=O)(=O)O (mixture of isomers) [Example 27A, (2S and 2R)-2-({[(1Z)-1-(2-Amino-1,3-thiazol-4-yl)-2-{[(3S)-2,2-dimethyl-4-oxo-1-(sulfo-oxy)azetidin-3-yl]amino}-2-oxoethylidene]amino}oxy)-3-(4-carbamimidoylphenoxy)-propanoic acid]	4	≤ 0.063	0.5	8																	strain 1 MIC [1]: 0.25 mg/L; strain 2 MIC [2]: 0.125 mg/L; strain 3 MIC [3]: 0.25 mg/L; strain 4 MIC [4]: 0.25 mg/L; strain 5 MIC [5]: 0.125 mg/L; strain 6 MIC [6]: 4 mg/L; strain 7 MIC [7]: 4 mg/L; strain 8 MIC [8]: 4 mg/L; strain 9 MIC [9]: 4 mg/L; strain 12 MIC [12]: ≦0.063 mg/L; strain 15 MIC [14]: 8 mg/L; strain 16 MIC [15]: 4 mg/L; strain 17 MIC [16]: 0.25 mg/L; strain 19 MIC [18]: 0.25 mg/L; strain 20 MIC [19]: 0.25 mg/L; strain 21 MIC [20]: 0.25 mg/L
CC1(C)[C@H](NC(=O)/C(=N\OC(COc2ccc(C(=N)N)c(O)c2)C(=O)O)c2csc(N)n2)C(=O)N1OS(=O)(=O)O (mixture of isomers) [Example 34B, (2S and 2R)-2-({[(1Z)-1-(2-Amino-1,3-thiazol-4-yl)-2-{[(3S)-2,2-dimethyl-4-oxo-1-(sulfo-oxy)azetidin-3-yl]amino}-2-oxoethylidene]amino}oxy)-3-(4-carbamimidoyl-3-hydroxyphenoxy)propanoic acid]																					strain 1 MIC [1]: 8 mg/L; strain 2 MIC [2]: 8 mg/L; strain 3 MIC [3]: 4 mg/L; strain 4 MIC [4]: 8 mg/L; strain 5 MIC [5]: 4 mg/L; strain 6 MIC [6]: 32 mg/L; strain 7 MIC [7]: 32 mg/L; strain 8 MIC [8]: 32 mg/L; strain 9 MIC [9]: 32 mg/L; strain 10 MIC [10]: 32 mg/L; strain 11 MIC [11]: 0.25 mg/L; strain 12 MIC [12]: 0.5 mg/L; strain 13 MIC [13]: 8 mg/L; strain 16 MIC [15]: 32 mg/L; strain 17 MIC [16]: 16 mg/L; strain 18 MIC [17]: 32 mg/L; strain 19 MIC [18]: 4 mg/L; strain 20 MIC [19]: 4 mg/L; strain 21 MIC [20]: 8 mg/L
CC1(C)[C@H](NC(=O)/C(=N\OC(COc2ccc(C(=N)N)nc2)C(=O)O)c2csc(N)n2)C(=O)N1OS(=O)(=O)O (mixture of isomers) [Example 36B, (2S and 2R)-2-({[(1Z)-1-(2-Amino-1,3-thiazol-4-yl)-2-{[(3S)-2,2-dimethyl-4-oxo-1-(sulfo-oxy)azetidin-3-yl]amino}-2-oxoethylidene]amino}oxy)-3-[(6-carbamimidoylpyridin-3-yl)oxy]propanoic acid]																					strain 1 MIC [1]: 2 mg/L; strain 2 MIC [2]: 1 mg/L; strain 3 MIC [3]: 2 mg/L; strain 4 MIC [4]: 0.5 mg/L; strain 5 MIC [5]: 2 mg/L; strain 6 MIC [6]: 16 mg/L; strain 8 MIC [8]: 32 mg/L; strain 9 MIC [9]: 32 mg/L; strain 10 MIC [10]: 16 mg/L; strain 11 MIC [11]: 0.125 mg/L; strain 12 MIC [12]: 0.5 mg/L; strain 13 MIC [13]: 4 mg/L; strain 15 MIC [14]: 32 mg/L; strain 16 MIC [15]: 32 mg/L; strain 17 MIC [16]: 4 mg/L; strain 18 MIC [17]: 32 mg/L; strain 19 MIC [18]: 2 mg/L; strain 20 MIC [19]: 2 mg/L; strain 21 MIC [20]: 2 mg/L
C[C@H]1[C@H](NC(=O)/C(=N\OCCOc2ccc(C(=N)N)cc2)c2csc(N)n2)C(=O)N1S(=O)(=O)O [Example 9, (2S,3S)-3-{[(2Z)-2-(2-Amino-1,3-thiazol-4-yl)-2-{[2-(4-carbamimidoylphenoxy)ethoxy]imino}acetyl]amino}-2-methyl-4-oxoazetidine-1-sulfonic acid]	32 (≈ 62.6 µM)	≤ 0.063	0.25 (≈ 0.489 µM)	16 (≈ 31.3 µM)	0.125 (≈ 0.244 µM)	0.125 (≈ 0.244 µM)	0.125 (≈ 0.244 µM)	0.125 (≈ 0.244 µM)	0.125 (≈ 0.244 µM)	2 (≈ 3.91 µM)	2 (≈ 3.91 µM)	16 (≈ 31.3 µM)	0.5 (≈ 0.977 µM)	≤ 0.063	4 (≈ 7.82 µM)	8 (≈ 15.6 µM)	0.25 (≈ 0.489 µM)	0.125 (≈ 0.244 µM)	0.125 (≈ 0.244 µM)	0.125 (≈ 0.244 µM)	
C[C@@H]1[C@H](NC(=O)/C(=N\OCCOc2ccc(C(=N)N)cc2)c2csc(N)n2)C(=O)N1S(=O)(=O)O [Example 11, (2R,3S)-3-{[(2Z)-2-(2-Amino-1,3-thiazol-4-yl)-2-{[2-(4-carbamimidoylphenoxy)ethoxy]imino}acetyl]amino}-2-methyl-4-oxoazetidine-1-sulfonic acid]	32 (≈ 62.6 µM)	0.125 (≈ 0.244 µM)	0.5 (≈ 0.977 µM)	8 (≈ 15.6 µM)	0.125 (≈ 0.244 µM)	≤ 0.125	≤ 0.063	≤ 0.125	≤ 0.063	1 (≈ 1.95 µM)	2 (≈ 3.91 µM)	16 (≈ 31.3 µM)	0.5 (≈ 0.977 µM)	0.125 (≈ 0.244 µM)	4 (≈ 7.82 µM)	8 (≈ 15.6 µM)	0.25 (≈ 0.489 µM)	0.25 (≈ 0.489 µM)	0.25 (≈ 0.489 µM)	0.25 (≈ 0.489 µM)	
C[C@H]1[C@H](NC(=O)/C(=N\OCCOc2ccc(C(=N)N)cc2)c2csc(N)n2)C(=O)N1OCS(=O)(=O)O [Example 12, {[(2S,3S)-3-{[(2Z)-2-(2-Amino-1,3-thiazol-4-yl)-2-{[2-(4-carbamimidoylphenoxy)ethoxy]imino}acetyl]amino}-2-methyl-4-oxoazetidin-1-yl]oxy}methanesulfonic acid]	8 (≈ 14.8 µM)	0.125 (≈ 0.231 µM)	≤ 0.063	8 (≈ 14.8 µM)	0.5 (≈ 0.923 µM)	0.25 (≈ 0.462 µM)	0.5 (≈ 0.923 µM)	0.25 (≈ 0.462 µM)	0.25 (≈ 0.462 µM)	4 (≈ 7.39 µM)	8 (≈ 14.8 µM)		4 (≈ 7.39 µM)	0.25 (≈ 0.462 µM)	32 (≈ 59.1 µM)	8 (≈ 14.8 µM)	0.5 (≈ 0.923 µM)	0.5 (≈ 0.923 µM)	0.25 (≈ 0.462 µM)	0.25 (≈ 0.462 µM)	MIC [15]: 16 mg/L (≈ 29.5 µM)
Cc1cc(OCCO/N=C(\C(=O)N[C@@H]2C(=O)N(OS(=O)(=O)O)C2(C)C)c2csc(N)n2)ccc1C(=N)N [Example 13, (2Z)-2-(2-Amino-1,3-thiazol-4-yl)-2-{[2-(4-carbamimidoyl-3-methylphenoxy)ethoxy]imino}-N-[(3S)-2,2-dimethyl-4-oxo-1-(sulfooxy)azetidin-3-yl]ethanamide]		≤ 0.063	≤ 0.063	32 (≈ 57.6 µM)	0.5 (≈ 0.9 µM)	1 (≈ 1.8 µM)	1 (≈ 1.8 µM)	0.25 (≈ 0.45 µM)	0.5 (≈ 0.9 µM)	8 (≈ 14.4 µM)	16 (≈ 28.8 µM)	8 (≈ 14.4 µM)	1 (≈ 1.8 µM)	0.125 (≈ 0.225 µM)	4 (≈ 7.2 µM)	4 (≈ 7.2 µM)	0.5 (≈ 0.9 µM)	0.5 (≈ 0.9 µM)	0.5 (≈ 0.9 µM)	0.5 (≈ 0.9 µM)	MIC [15]: 2 mg/L (≈ 3.6 µM)
C[C@H]1[C@H](NC(=O)/C(=N\OC(C)(C)COc2ccc(C(=N)N)cc2)c2csc(N)n2)C(=O)N1S(=O)(=O)O [Example 18, (2S,3S)-3-{[(2Z)-2-(2-Amino-1,3-thiazol-4-yl)-2-({[1-(4-carbamimidoylphenoxy)-2-methylpropan-2-yl]oxy}imino)acetyl]amino}-2-methyl-4-oxoazetidine-1-sulfonic acid]	16 (≈ 29.7 µM)	0.25 (≈ 0.463 µM)	0.5 (≈ 0.927 µM)	4 (≈ 7.41 µM)	1 (≈ 1.85 µM)	1 (≈ 1.85 µM)	2 (≈ 3.71 µM)	1 (≈ 1.85 µM)	1 (≈ 1.85 µM)	4 (≈ 7.41 µM)	4 (≈ 7.41 µM)	16 (≈ 29.7 µM)	16 (≈ 29.7 µM)	0.5 (≈ 0.927 µM)	4 (≈ 7.41 µM)	4 (≈ 7.41 µM)	2 (≈ 3.71 µM)	2 (≈ 3.71 µM)	2 (≈ 3.71 µM)	2 (≈ 3.71 µM)	

From patent publication US9556165B2 (priority 2012, dated 2017)
